Data taken from ChEMBL document CHEMBL1201862, “PubChem BioAssay data set” (2004).
Activity calls are given as the source filed them.

Key:
Streptococcus [1] = experiment: Group A Streptococcus viability loss, dose response, counter-screen for streptokinase expression inhibitor project, luminescence, BacTiterGlo (AID 1915); assay type: functional, organism-based;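 further: potency for reduction of bacterial viability or growth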
[2] = system: Streptococcus sp. 'group A'; experiment: growth inhibition of control SK(-) GAS strain, dose response, counter-screen for streptokinase expression inhibitor project, luminescence, kanamycin, BacTiterGlo, confirmation (AID 1900); assay type: functional, organism-based
Beta-galactosidase [3] = target: T1, Beta-galactosidase (Escherichia coli, UniProt Q8VNN2); experiment: Dose response counterscreen for EBI2 assay utilizing the enzyme, b-galactosidase.; assay type: functional
Streptokinase A = target: T2, Streptokinase A (Streptococcus pyogenes serotype M1, UniProt P10520); experiment: S. pyogenes streptokinase expression inhibitors, potency, dose response, plasminogen activation absorbance, OD405 (AID 1914); assay type: functional, Streptococcus pyogenes M1 GAS;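 further: secreted streptokinase activity via plasminogen activation per viability signal from cell pellet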
T2 sequence (P10520 whole entry): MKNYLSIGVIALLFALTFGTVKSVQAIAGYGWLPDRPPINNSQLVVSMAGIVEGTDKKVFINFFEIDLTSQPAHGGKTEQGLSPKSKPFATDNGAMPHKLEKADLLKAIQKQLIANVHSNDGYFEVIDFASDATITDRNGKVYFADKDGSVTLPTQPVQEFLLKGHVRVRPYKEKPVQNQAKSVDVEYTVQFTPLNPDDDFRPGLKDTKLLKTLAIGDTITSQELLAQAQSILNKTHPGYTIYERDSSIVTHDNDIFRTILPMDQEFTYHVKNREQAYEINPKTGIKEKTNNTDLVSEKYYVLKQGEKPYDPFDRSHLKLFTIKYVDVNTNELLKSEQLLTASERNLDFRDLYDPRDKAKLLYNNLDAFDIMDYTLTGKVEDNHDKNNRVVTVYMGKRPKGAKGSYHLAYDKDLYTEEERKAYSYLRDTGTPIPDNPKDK

Streptococcus [4] = experiment: Luminescence Microorganism-Based Dose Response Follow up to Identify Compounds Cytotoxic to Streptococcus. [Related pubchem assays: 1677 (Project Summary), 1915, 1914, 1902 (Retest at Dose), 1900 (Counter Screen), 1662 (Primary HTS)]; assay type: functional, organism-based
[5] = target: Lysosomal acid glucosylceramidase (Homo sapiens, UniProt P04062); experiment: Dose response cell-based high throughput screening assay to identify enhancers of beta-glucosidase activity. [Related pubchem assays: 784 ]; assay type: functional
[6] = target: T3, Eukaryotic translation initiation factor 2-alpha kinase 3 (Homo sapiens, UniProt Q9NZJ5); experiment: Dose response cell-based high-throughput screening assay to measure PERK inhibition. [Related pubchem assays: 1416 ]; assay type: functional
T3 sequence (Q9NZJ5 whole entry): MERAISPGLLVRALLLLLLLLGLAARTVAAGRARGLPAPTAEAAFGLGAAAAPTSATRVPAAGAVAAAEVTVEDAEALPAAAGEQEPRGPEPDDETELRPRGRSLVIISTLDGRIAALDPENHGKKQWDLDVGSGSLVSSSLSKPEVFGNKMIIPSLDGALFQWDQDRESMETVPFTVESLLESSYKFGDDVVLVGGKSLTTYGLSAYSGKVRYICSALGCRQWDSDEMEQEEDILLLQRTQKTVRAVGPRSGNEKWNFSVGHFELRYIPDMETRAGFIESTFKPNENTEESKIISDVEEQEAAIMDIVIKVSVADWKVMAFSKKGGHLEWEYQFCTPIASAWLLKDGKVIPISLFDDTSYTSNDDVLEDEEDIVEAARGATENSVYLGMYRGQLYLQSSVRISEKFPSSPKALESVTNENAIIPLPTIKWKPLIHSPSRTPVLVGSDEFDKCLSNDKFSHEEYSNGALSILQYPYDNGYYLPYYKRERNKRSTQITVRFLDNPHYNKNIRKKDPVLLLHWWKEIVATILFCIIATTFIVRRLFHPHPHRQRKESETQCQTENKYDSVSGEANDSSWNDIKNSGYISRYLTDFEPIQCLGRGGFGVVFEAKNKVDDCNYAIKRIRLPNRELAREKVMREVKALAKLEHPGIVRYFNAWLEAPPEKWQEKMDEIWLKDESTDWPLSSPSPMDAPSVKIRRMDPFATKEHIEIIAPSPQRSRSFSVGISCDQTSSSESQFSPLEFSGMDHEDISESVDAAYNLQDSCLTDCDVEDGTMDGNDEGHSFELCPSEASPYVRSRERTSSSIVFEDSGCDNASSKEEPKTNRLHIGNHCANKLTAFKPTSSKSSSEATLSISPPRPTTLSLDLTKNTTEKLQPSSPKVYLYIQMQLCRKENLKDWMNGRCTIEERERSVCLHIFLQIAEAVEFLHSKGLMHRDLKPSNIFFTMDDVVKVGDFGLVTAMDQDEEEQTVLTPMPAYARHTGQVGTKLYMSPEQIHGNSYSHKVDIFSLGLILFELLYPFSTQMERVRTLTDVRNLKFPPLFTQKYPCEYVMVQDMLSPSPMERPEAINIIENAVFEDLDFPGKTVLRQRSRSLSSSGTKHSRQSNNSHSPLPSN

[7] = target: T3, Eukaryotic translation initiation factor 2-alpha kinase 3; experiment: Counterscreen assay for PERK inhibitors: Dose response cell-based high throughput screening assay to measure inhibition of PERK at 6 hours. [Related pubchem assays: 1522, 1416 ]; assay type: functional
[8] = target: T4, Neuropeptides B/W receptor type 1 (Homo sapiens, UniProt P48145); experiment: Fluorescence-based dose response cell-based high throughput screening assay to identify antagonists of the G-protein coupled receptor 7 (GPR7). [Related pubchem assays: 1952 (Screening assay (GPR7 antagonists).), 1880 (Summary AID.)]; assay type: functional
T4 sequence (P48145 whole entry): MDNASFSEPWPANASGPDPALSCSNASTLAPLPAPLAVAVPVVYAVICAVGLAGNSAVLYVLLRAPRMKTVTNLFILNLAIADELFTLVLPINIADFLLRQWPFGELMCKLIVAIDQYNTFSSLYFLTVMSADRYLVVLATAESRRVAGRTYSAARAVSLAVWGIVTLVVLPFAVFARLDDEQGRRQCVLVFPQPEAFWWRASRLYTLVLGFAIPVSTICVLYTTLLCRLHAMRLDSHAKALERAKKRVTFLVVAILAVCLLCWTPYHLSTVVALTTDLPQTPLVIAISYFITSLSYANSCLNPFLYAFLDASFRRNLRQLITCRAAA

[9] = target: Melanin-concentrating hormone receptor 1 (Homo sapiens, UniProt Q99705); experiment: Fluorescence-based counterscreen for antagonists of the G-protein coupled receptor 7 (GPR7): cell-based high throughput dose response assay to identify antagonists of the melanin-concentrating hormone receptor 1 (MCHR1).; assay type: functional
Fatty acid synthase [10] = target: T5, Fatty acid synthase (Homo sapiens, UniProt P49327); experiment: FAS thioesterase domain inhibitors, dose response, biochemical, kinetic fluorescence intensity (AID 624326); assay type: functional;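 further: rate of fluorescence rise from hydrolysis of a fluorogenic O-methyl fluorescein ester substrate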
[11] = target: C-C chemokine receptor type 6 (Homo sapiens, UniProt P51684); experiment: CCR6 receptor antagonists, dose response, cell-based, luminescent beta-arrestin readout (AID 504728); assay type: functional
[12] = HeLa cell cytotoxicity, dose response, cytotoxicity control for MgcRacGAP inhibitor project (AID 624300); assay type: functional
[13] = HepG2 cell cytotoxicity, dose response, cytotoxicity control for Shn3 inhibitor project, CellTiter-Glo, cherry-picked (AID 624134); assay type: functional, cell-based
[14] = Shn3 3'UTR reporter inhibitors, dose response, cell-based, Clone20 osteoblasts, firefly luciferase, cherry-picked (AID 624132); assay type: functional;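 further: firefly luciferase luminescence from reporter carrying the Shn3 3'UTR in osteoblasts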
[15] = control 3'UTR Renilla luciferase suppression, dose response, counter-screen for Shn3 inhibitor project, cell-based, Clone20-Shn3RL, cherry-picked (AID 624133); assay type: functional
Vero = Vero cell cytotoxicity, cytotoxicity control for flavivirus capping enzyme inhibitors (AID 588742); assay type: functional; conditions: Chlorocebus sabaeus
Beta-galactosidase [16] = target: T1, Beta-galactosidase; experiment: beta-galactosidase enzyme inhibitors and activators, dose response, artefact control for CCR6 antagonist project, biochemical, E. coli enzyme, set 3 (AID 504712); assay type: functional
Fatty acid synthase [17] = target: T5, Fatty acid synthase; experiment: FAS thioesterase domain inhibitors, dose response, biochemical, endpoint fluorescence intensity, uHTS hits (AID 624327); assay type: functional;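 further: fluorescence from hydrolysis of an O-methyl fluorescein acyl ester substrate by the enzyme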
Genome polyprotein = Genome polyprotein (dengue virus type 2, UniProt P29990); experiment: Dengue-2 NS5 methyltransferase inhibitors, primary screen, biochemical, confirmation dose response (AID 588689); assay type: functional
[18] = target: T6, Rac GTPase-activating protein 1 (Homo sapiens, UniProt Q9H0H5); experiment: MgcRacGAP GTPase-activating activity inhibitors, confirmation, biochemical, ADP Hunter fluorescence, primary and confirmatory (AID 624330); assay type: functional
T6 sequence (Q9H0H5 whole entry): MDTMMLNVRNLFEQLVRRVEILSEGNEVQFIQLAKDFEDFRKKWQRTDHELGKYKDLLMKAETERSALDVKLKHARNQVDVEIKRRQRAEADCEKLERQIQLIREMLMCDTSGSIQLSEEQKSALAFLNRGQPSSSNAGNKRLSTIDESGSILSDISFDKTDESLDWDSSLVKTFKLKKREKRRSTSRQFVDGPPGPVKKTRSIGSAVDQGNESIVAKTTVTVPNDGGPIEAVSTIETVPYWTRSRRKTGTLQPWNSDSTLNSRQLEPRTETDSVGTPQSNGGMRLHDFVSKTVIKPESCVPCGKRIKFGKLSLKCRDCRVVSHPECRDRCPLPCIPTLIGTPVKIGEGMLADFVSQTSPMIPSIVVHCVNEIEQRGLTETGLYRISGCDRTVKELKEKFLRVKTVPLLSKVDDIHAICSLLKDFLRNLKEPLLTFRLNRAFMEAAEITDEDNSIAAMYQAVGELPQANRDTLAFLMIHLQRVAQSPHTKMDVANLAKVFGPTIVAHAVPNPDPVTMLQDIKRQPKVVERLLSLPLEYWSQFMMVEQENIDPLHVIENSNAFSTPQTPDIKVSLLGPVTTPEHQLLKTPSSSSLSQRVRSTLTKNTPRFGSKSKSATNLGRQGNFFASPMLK

[19] = target: T7, Voltage-gated N-type calcium channel alpha-1B subunit/Amyloid beta A4 precursor protein-binding family A member 1 (Homo sapiens, UniProt Q00975+Q02410); experiment: disruptors of Mint-PDZ/N-type channel peptide interaction – biochemical, HTRF, set 2, SAR follow-up (AID 434980); assay type: functional
[20] = target: T7, Voltage-gated N-type calcium channel alpha-1B subunit/Amyloid beta A4 precursor protein-binding family A member 1; experiment: disruptors of Mint-PDZ/N-type channel peptide interaction – biochemical, HTRF, SAR follow-up (AID 2489); assay type: functional
[21] = target: Metabotropic glutamate receptor 4 (Rattus norvegicus, UniProt P31423); experiment: Modulation of the Metabotropic Glutamate Receptor mGluR4: Rat PAM Potency. [Related pubchem assays (depositor defined):AID2437, AID2807]; assay type: functional
[22] = target: FAD-linked sulfhydryl oxidase ALR (Homo sapiens, UniProt P55789); experiment: inhibitors of human ALR sulfhydryl oxidase, dose response, biochemical, H2O2 detection, luminescence, cherry-pick (AID 493248)
Chain of FAD-linked sulfhydryl oxidase ALR (P55789 whole entry): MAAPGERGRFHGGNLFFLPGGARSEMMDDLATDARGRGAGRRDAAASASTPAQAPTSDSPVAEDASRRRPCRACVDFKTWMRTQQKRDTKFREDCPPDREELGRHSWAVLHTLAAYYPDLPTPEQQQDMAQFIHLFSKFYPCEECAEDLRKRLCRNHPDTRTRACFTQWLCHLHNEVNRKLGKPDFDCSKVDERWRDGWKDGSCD

T1 sequence (Q8VNN2 whole entry): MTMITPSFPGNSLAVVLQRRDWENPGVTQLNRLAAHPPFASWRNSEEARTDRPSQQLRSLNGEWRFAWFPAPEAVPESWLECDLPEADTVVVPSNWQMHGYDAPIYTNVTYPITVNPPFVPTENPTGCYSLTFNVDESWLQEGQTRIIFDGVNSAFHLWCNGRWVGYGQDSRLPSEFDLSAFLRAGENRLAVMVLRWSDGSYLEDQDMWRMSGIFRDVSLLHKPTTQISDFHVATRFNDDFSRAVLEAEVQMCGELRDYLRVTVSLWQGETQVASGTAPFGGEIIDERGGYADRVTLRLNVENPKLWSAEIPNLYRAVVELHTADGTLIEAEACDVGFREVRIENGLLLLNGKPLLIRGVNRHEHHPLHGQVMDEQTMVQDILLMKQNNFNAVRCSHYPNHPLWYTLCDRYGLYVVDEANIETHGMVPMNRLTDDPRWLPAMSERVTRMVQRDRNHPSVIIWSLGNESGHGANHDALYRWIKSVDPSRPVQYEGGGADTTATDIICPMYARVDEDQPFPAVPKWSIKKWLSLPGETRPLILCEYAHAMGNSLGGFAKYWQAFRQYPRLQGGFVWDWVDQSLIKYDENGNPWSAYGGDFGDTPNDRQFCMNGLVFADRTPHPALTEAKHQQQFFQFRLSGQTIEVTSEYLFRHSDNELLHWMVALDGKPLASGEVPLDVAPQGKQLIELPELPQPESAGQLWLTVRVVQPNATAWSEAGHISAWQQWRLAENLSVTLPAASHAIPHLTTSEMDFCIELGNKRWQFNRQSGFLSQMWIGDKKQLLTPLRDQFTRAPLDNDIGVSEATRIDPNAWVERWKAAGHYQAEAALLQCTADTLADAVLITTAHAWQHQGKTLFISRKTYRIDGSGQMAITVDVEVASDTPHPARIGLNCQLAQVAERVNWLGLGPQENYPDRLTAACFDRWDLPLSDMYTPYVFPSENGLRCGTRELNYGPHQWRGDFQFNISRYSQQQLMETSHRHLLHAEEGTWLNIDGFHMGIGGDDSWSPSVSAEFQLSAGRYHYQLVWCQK
Chain of Lysosomal acid glucosylceramidase (P04062 whole entry): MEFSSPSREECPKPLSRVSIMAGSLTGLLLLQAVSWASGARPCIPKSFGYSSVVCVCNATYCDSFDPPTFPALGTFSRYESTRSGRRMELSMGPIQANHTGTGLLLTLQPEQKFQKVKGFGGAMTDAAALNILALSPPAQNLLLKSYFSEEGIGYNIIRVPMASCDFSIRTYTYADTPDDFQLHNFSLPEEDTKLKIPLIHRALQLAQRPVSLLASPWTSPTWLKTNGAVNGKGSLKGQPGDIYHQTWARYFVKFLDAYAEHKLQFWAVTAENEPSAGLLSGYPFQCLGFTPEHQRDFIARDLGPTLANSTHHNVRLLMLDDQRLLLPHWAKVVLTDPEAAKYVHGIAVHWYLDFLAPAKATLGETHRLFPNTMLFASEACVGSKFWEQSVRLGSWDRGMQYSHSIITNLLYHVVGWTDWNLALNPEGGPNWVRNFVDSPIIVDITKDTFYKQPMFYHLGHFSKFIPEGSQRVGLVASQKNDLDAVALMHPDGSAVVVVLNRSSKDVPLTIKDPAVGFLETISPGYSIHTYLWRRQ
Chain of C-C chemokine receptor type 6 (P51684 whole entry): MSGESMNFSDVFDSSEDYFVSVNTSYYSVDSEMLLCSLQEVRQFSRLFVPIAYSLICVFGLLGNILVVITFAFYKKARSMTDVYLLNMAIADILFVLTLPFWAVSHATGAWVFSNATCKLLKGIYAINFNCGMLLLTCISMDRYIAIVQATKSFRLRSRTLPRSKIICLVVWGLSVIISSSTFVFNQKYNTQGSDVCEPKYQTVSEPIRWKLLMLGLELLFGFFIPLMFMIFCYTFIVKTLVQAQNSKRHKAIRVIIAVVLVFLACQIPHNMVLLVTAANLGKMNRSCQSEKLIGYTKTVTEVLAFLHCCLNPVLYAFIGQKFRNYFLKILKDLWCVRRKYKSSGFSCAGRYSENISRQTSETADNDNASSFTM
T5 sequence (P49327 whole entry, the tested form may be a part): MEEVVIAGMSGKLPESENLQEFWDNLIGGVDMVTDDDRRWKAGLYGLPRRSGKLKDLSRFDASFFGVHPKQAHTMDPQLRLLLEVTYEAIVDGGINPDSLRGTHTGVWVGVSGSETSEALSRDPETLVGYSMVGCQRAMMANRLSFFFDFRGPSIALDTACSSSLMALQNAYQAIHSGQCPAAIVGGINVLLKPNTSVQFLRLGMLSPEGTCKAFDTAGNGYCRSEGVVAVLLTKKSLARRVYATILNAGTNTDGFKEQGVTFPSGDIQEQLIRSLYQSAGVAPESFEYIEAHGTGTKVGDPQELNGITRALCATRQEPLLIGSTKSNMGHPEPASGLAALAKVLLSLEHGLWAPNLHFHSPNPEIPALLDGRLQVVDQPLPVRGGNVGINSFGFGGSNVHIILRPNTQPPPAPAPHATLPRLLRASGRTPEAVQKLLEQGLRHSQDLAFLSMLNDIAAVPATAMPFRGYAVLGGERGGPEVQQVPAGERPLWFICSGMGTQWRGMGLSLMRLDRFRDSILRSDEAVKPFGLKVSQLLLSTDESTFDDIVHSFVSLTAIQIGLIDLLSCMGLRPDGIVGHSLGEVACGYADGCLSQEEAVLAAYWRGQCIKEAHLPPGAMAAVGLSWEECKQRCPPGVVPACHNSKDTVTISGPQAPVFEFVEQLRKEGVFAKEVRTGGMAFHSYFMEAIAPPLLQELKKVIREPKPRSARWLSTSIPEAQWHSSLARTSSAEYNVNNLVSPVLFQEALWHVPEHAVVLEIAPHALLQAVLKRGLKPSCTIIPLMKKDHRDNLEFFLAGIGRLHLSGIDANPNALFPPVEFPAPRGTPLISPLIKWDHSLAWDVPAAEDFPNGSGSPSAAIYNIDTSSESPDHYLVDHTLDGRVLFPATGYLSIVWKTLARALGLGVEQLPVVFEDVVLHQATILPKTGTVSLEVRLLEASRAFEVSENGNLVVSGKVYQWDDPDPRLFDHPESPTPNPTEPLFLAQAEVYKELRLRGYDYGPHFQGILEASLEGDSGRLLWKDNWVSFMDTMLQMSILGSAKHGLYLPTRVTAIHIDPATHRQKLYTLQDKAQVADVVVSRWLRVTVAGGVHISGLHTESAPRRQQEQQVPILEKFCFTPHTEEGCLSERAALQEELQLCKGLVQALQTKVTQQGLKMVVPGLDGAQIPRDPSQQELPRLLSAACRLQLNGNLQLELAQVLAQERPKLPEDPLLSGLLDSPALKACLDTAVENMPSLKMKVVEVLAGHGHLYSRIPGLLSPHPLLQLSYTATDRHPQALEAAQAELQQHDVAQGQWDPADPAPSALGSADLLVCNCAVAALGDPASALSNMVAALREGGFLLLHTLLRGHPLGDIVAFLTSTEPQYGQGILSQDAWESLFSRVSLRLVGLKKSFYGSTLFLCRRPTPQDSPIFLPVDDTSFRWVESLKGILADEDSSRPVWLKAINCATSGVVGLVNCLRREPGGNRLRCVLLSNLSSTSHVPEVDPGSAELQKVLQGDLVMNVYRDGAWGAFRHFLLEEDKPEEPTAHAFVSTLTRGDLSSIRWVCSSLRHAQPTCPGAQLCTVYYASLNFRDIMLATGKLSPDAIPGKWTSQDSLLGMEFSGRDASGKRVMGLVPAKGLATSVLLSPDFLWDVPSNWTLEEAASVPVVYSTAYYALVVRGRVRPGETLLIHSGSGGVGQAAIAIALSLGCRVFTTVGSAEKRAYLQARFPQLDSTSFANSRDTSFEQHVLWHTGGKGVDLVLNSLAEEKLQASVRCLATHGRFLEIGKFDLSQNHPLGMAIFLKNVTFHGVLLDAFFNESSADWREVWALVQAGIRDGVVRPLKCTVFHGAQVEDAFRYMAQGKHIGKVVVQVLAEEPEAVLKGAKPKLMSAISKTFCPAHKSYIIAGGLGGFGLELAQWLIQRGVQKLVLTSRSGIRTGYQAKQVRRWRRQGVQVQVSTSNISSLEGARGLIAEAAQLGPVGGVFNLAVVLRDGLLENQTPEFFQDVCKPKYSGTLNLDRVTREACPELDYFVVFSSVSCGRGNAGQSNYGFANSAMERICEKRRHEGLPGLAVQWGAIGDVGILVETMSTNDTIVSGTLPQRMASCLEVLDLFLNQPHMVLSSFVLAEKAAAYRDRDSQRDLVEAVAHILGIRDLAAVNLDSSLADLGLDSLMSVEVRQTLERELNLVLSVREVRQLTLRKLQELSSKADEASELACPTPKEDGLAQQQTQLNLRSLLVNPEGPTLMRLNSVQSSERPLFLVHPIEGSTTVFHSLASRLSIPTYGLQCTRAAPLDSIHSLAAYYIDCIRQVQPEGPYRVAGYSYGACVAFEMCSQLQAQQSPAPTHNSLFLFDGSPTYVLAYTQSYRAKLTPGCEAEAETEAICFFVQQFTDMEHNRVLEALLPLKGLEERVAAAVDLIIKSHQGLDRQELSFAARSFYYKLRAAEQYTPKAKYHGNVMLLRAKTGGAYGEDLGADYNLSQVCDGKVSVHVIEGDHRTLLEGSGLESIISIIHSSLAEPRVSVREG
Chain of Melanin-concentrating hormone receptor 1 (Q99705 whole entry, the tested form may be a part): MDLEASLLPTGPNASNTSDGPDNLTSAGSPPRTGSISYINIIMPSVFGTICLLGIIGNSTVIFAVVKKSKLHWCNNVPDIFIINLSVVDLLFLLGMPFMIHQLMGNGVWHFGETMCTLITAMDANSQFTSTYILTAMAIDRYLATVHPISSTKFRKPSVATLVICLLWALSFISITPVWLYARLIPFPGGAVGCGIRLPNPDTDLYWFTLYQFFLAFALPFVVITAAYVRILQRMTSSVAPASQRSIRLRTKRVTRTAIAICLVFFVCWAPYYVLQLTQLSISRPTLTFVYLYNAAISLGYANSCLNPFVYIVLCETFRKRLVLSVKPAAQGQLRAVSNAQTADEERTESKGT

In the case of `COc1ccc2oc(C(=O)N3CCN(C(c4ccccc4)c4ccccc4)CC3)c(C)c2c1`, the EC50 (Streptococcus [1]) is reported as > 150 µM (not active), the EC50 [2] is reported as 32.2 µM (active) and the IC50 (Beta-galactosidase [3]) is reported as > 80 µM (inactive). The EC50 (Streptokinase A) was 4.97 µM (active) and the EC50 (Streptococcus [4]) was > 500 µM (not active).
With `O=C(CCCn1c(=S)[nH]c2cc3c(cc2c1=O)OCO3)N1CCN(c2ncccn2)CC1` the EC50 [5] was > 50 µM (not active).
In the case of `CC(C)(C)NC(=O)CSc1nnc(-c2ccco2)n1Cc1ccco1`, the EC50 [5] is reported as > 50 µM (not active).
With `Cc1cc2oc(=O)cc(CN(C)Cc3ccccc3)c2cc1C(C)C` the EC50 (Streptococcus [1]) was > 150 µM (not active), the EC50 [2] was 13.3 µM (active) and the EC50 (Streptokinase A) was 8.46 µM (active). The EC50 (Streptococcus [4]) was > 500 µM (not active).
For `Cc1ccc(NC(=O)COC(=O)CCc2c[nH]c(O)n2)cc1`, the EC50 [6] was > 55.7 µM (not active) and the EC50 [7] was > 55.7 µM (not active).
In the case of `O=C(NC1CCCCCCC1)C1c2ccccc2C(=O)N1Cc1ccco1` (centres undefined), the IC50 [8] is reported as > 43.8 µM (not active) and the IC50 [9] is reported as > 43.8 µM (not active).
In the case of `CC1(C)CC[C@]2(C(=O)n3ccnc3)CC[C@]3(C)[C@H](C(=O)C=C4[C@@]5(C)C=C(C#N)C(=O)C(C)(C)[C@@H]5CC[C@]43C)[C@@H]2C1`, the IC50 (Fatty acid synthase [10]) is reported as 1.77 µM (active), the IC50 [11] is reported as 11.5 µM (active) and the CC50 [12] is reported as 5.19 µM (active). The AC50 [13] was 5.13 µM (active), the AC50 [14] was < 0.26 µM (active) and the AC50 [15] was 0.376 µM (active). For the same molecule, the CC50 (Vero) was < 0.63 µM (active), the IC50 (Beta-galactosidase [16]) was > 66.6 µM (inactive) and the IC50 (Fatty acid synthase [17]) was 2.85 µM (active). For the same molecule, the IC50 (Genome polyprotein) was 38.2 µM (active) and the IC50 [18] was 20.7 µM (active).
In the case of `O=C(c1cc(-c2ccco2)nc2ccccc12)N1CCCCC1Cc1ccccc1` (centres undefined), the IC50 [19] is reported as > 56.8 µM (inactive) and the IC50 [20] is reported as > 56.8 µM (inactive).
For `O=C(Nc1ccc(N2C(=O)[C@@H]3[C@H](C2=O)[C@H]2C=C[C@@H]3CC2)c(Cl)c1)c1ccccn1`, the EC50 [21] was 0.25 µM (active).
In the case of `CC(=O)c1ccc(N/N=C2/CCCNC2=O)cc1`, the EC50 [6] is reported as > 55.7 µM (not active), the EC50 [7] is reported as > 55.7 µM (not active) and the AC50 [22] is reported as 3.67 µM (active).
In the case of `C=CCS/C(N)=N\N=C\c1cc(Br)cc([N+](=O)[O-])c1O`, the IC50 [11] is reported as > 66.6 µM (inactive) and the IC50 (Beta-galactosidase [16]) is reported as > 66.6 µM (inactive).
